SMILES strings stand for the structures.

T1 sequence (P43220 24-463): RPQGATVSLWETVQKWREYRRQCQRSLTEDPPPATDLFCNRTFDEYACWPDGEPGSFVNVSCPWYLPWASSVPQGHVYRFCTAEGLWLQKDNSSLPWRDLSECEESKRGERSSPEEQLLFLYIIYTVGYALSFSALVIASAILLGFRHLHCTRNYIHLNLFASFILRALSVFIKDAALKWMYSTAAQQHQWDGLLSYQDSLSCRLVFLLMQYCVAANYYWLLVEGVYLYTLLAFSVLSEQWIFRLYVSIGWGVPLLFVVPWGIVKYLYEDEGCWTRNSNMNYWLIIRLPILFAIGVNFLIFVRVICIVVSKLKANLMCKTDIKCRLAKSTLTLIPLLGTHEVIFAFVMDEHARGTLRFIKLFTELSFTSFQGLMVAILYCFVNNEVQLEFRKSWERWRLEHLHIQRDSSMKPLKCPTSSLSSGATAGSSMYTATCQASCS

The assay concerns the target T1, human GLP-1 receptor (Homo sapiens, UniProt P43220).
T1 construct: expressed in transfected cells
In words: GLP-1R cAMP Assay (HitHunter cAMP accumulation). Particulars: cAMP accumulation, CHO cells stably overexpressing human GLP-1 receptor, 30 min treatment; read-out: EC50. In kind it is cell-based. Summed up: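 CHO cells stably expressing human GLP-1R, 10,000 cells/well in HBSS with 10 mM HEPES and 625 μM IBMX, were mixed with anti-cAMP antibody reagent. Compound was applied as a 20-point dose response in triplicate for 30 min. After lysis and overnight detection, luminescence was read and dose-response curves analysed.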
A word on the EC50: it is the concentration at which the effect is half-maximal. With `N#Cc1ccc(OCc2cccc([C@@H]3CCN(Cc4nc5c(F)cc(C(=O)O)cc5n4C[C@@H]4CCO4)C3)c2)c(F)c1` [Compound 445, 2-{[(3S)-3-{3-[(4-cyano-2-fluorophenoxy)methyl]phenyl}pyrrolidin-1-yl]methyl}-4-fluoro-1-{[(2S)-oxetan-2-yl]methyl}-1H-1,3-benzodiazole-6-carboxylic acid], the concentration for a half-maximal effect (EC50) is below 50 nM.
In the case of `O=C(O)c1ccc2nc(CN3CC[C@@H](c4ccc(F)c(COc5ccc(Cl)cc5F)c4)C3)n(C[C@@H]3CCO3)c2c1` [Compound 446, 2-{[(3S)-3-{3-[(4-chloro-2-fluorophenoxy)methyl]-4-fluorophenyl}pyrrolidin-1-yl]methyl}-1-{[(2S)-oxetan-2-yl]methyl}-1H-1,3-benzodiazole-6-carboxylic acid], the EC50 is below 50 nM.
Turning to `N#Cc1cc(F)ccc1OCc1cc([C@@H]2CCN(Cc3nc4ccc(C(=O)O)cc4n3C[C@@H]3CCO3)C2)ccc1F` [Compound 447, 2-{[(3S)-3-{3-[(2-cyano-4-fluorophenoxy)methyl]-4-fluorophenyl}pyrrolidin-1-yl]methyl}-1-{[(2S)-oxetan-2-yl]methyl}-1H-1,3-benzodiazole-6-carboxylic acid], the concentration for a half-maximal effect (EC50) is below 50 nM.
With `O=C(O)c1ccc2nc(CN3CC[C@H](c4ccc(F)c(COc5ccc(Cl)cc5F)c4)C3)n(C[C@@H]3CCO3)c2c1` [Compound 448, 2-{[(3R)-3-{3-[(4-chloro-2-fluorophenoxy)methyl]-4-fluorophenyl}pyrrolidin-1-yl]methyl}-1-{[(2S)-oxetan-2-yl]methyl}-1H-1,3-benzodiazole-6-carboxylic acid], the 50% effective concentration (EC50) was 50 to 500 nM.
Regarding `N#Cc1ccc(OCc2cc([C@@H]3CCN(Cc4nc5c(F)cc(C(=O)O)cc5n4C[C@@H]4CCO4)C3)ccc2F)c(F)c1` [Compound 450, 2-{[(3S)-3-{3-[(4-cyano-2-fluorophenoxy)methyl]-4-fluorophenyl}pyrrolidin-1-yl]methyl}-4-fluoro-1-{[(2S)-oxetan-2-yl]methyl}-1H-1,3-benzodiazole-6-carboxylic acid], the EC50 is below 50 nM.
Take `O=C(O)c1cc(F)c2nc(CN3CC=C(c4nc(COc5ccc(Cl)cc5Cl)ccc4F)C3)n(C[C@@H]3CCO3)c2c1` [Compound 451, 2-[(3-{6-[(2,4-dichlorophenoxy)methyl]-3-fluoropyridin-2-yl}-2,5-dihydro-1H-pyrrol-1-yl)methyl]-4-fluoro-1-{[(2S)-oxetan-2-yl]methyl}-1H-1,3-benzodiazole-6-carboxylic acid]: the EC50 is below 50 nM.
For the molecule `O=C(O)c1cc(F)c2nc(CN3CC=C(c4cc(COc5ccc(Cl)cc5F)ncc4F)C3)n(C[C@@H]3CCO3)c2c1` [Compound 452], the EC50 is below 50 nM.
The figure for `O=C(O)c1cc(F)c2nc(CN3CC[C@@H](c4ccc(F)c(COc5ccc(Cl)cc5F)n4)C3)n(C[C@@H]3CCO3)c2c1` [Compound 453, 2-{[(3R)-3-{6-[(4-chloro-2-fluorophenoxy)methyl]-5-fluoropyridin-2-yl}pyrrolidin-1-yl]methyl}-4-fluoro-1-{[(2S)-oxetan-2-yl]methyl}-1H-1,3-benzodiazole-6-carboxylic acid] is below 50 nM; for `N#Cc1ccc(OCc2nc([C@@H]3CCN(Cc4nc5c(F)cc(C(=O)O)cc5n4C[C@@H]4CCO4)C3)ccc2F)c(F)c1` [Compound 454, 2-{[(3R)-3-{6-[(4-cyano-2-fluorophenoxy)methyl]-5-fluoropyridin-2-yl}pyrrolidin-1-yl]methyl}-4-fluoro-1-{[(2S)-oxetan-2-yl]methyl}-1H-1,3-benzodiazole-6-carboxylic acid] it is below 50 nM.
For `N#Cc1ccc(OCc2nc([C@H]3CCN(Cc4nc5c(F)cc(C(=O)O)cc5n4C[C@@H]4CCO4)C3)ccc2F)c(F)c1` [Compound 455, 2-{[(3S)-3-{6-[(4-cyano-2-fluorophenoxy)methyl]-5-fluoropyridin-2-yl}pyrrolidin-1-yl]methyl}-4-fluoro-1-{[(2S)-oxetan-2-yl]methyl}-1H-1,3-benzodiazole-6-carboxylic acid], the 50% effective concentration (EC50) lay in the range of 50 to 500 nM.
The figure for `O=C(O)c1ccc2nc(CN3CCC(c4nc(COc5ccc(Cl)cc5F)ccc4F)C3)n(C[C@@H]3CCO3)c2c1` (stereo partly drawn) [Compound 456, 2-[(3-{6-[(4-chloro-2-fluorophenoxy)methyl]-3-fluoropyridin-2-yl}pyrrolidin-1-yl)methyl]-1-{[(2S)-oxetan-2-yl]methyl}-1H-1,3-benzodiazole-6-carboxylic acid] is below 50 nM; for `O=C(O)c1cc(F)c2nc(CN3CCC(c4nc(COc5ccc(Cl)cc5F)ccc4F)C3)n(C[C@@H]3CCO3)c2c1` (stereo partly drawn) [Compound 457, 2-[(3-{6-[(4-chloro-2-fluorophenoxy)methyl]-3-fluoropyridin-2-yl}pyrrolidin-1-yl)methyl]-4-fluoro-1-{[(2S)-oxetan-2-yl]methyl}-1H-1,3-benzodiazole-6-carboxylic acid] it is below 50 nM.
The figure for `N#Cc1ccc(OCc2ccc(F)c(C3=CCN(Cc4nc5ccc(C(=O)O)cc5n4C[C@@H]4CCO4)C3)n2)c(Cl)c1` [Compound 458, 2-[(3-{6-[(2-chloro-4-cyanophenoxy)methyl]-3-fluoropyridin-2-yl}-2,5-dihydro-1H-pyrrol-1-yl)methyl]-1-{[(2S)-oxetan-2-yl]methyl}-1H-1,3-benzodiazole-6-carboxylic acid] is below 50 nM.
In the case of `CCn1cncc1Cn1c(Cc2ccc(Oc3cccc(COc4ccc(C#N)cc4F)n3)cc2F)nc2ccc(C(=O)O)cc21` [Compound 461, 2-{[4-({6-[(4-cyano-2-fluorophenoxy)methyl]pyridin-2-yl}oxy)-2-fluorophenyl]methyl}-1-[(1-ethyl-1H-imidazol-5-yl)methyl]-1H-1,3-benzodiazole-6-carboxylic acid] it was below 50 nM; in that of `CCn1cncc1Cn1c(Cc2ccc(Oc3ccnc(COc4ccc(Cl)cc4F)c3)cc2F)nc2ccc(C(=O)O)cc21` [Compound 462, 2-{[4-({2-[(4-chloro-2-fluorophenoxy)methyl]pyridin-4-yl}oxy)-2-fluorophenyl]methyl}-1-[(1-ethyl-1H-imidazol-5-yl)methyl]-1H-1,3-benzodiazole-6-carboxylic acid], below 50 nM.
As for `CCn1cncc1Cn1c(Cc2ccc(Oc3cccc(COc4ccc(Cl)cc4F)n3)cc2F)nc2ccc(C(=O)O)cc21` [Compound 463, 2-{[4-({6-[(4-chloro-2-fluorophenoxy)methyl]pyridin-2-yl}oxy)-2-fluorophenyl]methyl}-1-[(1-ethyl-1H-imidazol-5-yl)methyl]-1H-1,3-benzodiazole-6-carboxylic acid], the EC50 is below 50 nM.
The figure for `O=C(O)c1ccc2nc(Cc3ccc(Oc4cccc(COc5ccc(Cl)cc5F)n4)cc3F)n(C[C@@H]3CCO3)c2c1` [Compound 464, 2-{[4-({6-[(4-chloro-2-fluorophenoxy)methyl]pyridin-2-yl}oxy)-2-fluorophenyl]methyl}-1-{[(2S)-oxetan-2-yl]methyl}-1H-1,3-benzodiazole-6-carboxylic acid] is below 50 nM.
On to `N#Cc1ccc(OCc2nccc(Oc3ccc(Cc4nc5ccc(C(=O)O)cc5n4C[C@@H]4CCO4)c(F)c3)n2)c(F)c1` [Compound 465, 2-{[4-({2-[(4-cyano-2-fluorophenoxy)methyl]pyrimidin-4-yl}oxy)-2-fluorophenyl]methyl}-1-{[(2S)-oxetan-2-yl]methyl}-1H-1,3-benzodiazole-6-carboxylic acid], for which the concentration for a half-maximal effect (EC50) was below 50 nM.
In the case of `O=C(O)c1ccc2nc(Cc3ccc(Oc4ccnc(COc5ccc(Cl)cc5F)c4)cc3F)n(C[C@@H]3CCO3)c2c1` [Compound 466, 2-{[4-({2-[(4-chloro-2-fluorophenoxy)methyl]pyridin-4-yl}oxy)-2-fluorophenyl]methyl}-1-{[(2S)-oxetan-2-yl]methyl}-1H-1,3-bcnzodiazole-6-carboxylic acid] it was below 50 nM; in that of `N#Cc1ccc(OCc2nccc(Oc3ccc(Cc4nc5c(F)cc(C(=O)O)cc5n4C[C@@H]4CCO4)c(F)c3)n2)c(F)c1` [Compound 467], below 50 nM; in that of `N#CCC1(Cn2c(Cc3ccc(Oc4ccnc(COc5ccc(C#N)cc5F)n4)cc3F)nc3ccc(C(=O)O)cc32)CC1` [Compound 468, 2-{[4-({2-[(4-cyano-2-fluorophenoxy)methyl]pyrimidin-4-yl}oxy)-2-fluorophenyl]methyl}-1-{[1-(cyanomethyl)cyclopropyl]methyl}-1H-1,3-benzodiazole-6-carboxylic acid], below 50 nM.
In the case of `N#CCC1(Cn2c(Cc3ccc(Oc4cccc(COc5ccc(C#N)cc5F)n4)cc3F)nc3c(F)cc(C(=O)O)cc32)CC1` [Compound 469, 2-{[4-({6-[(4-cyano-2-fluorophenoxy)methyl]pyridin-2-yl}oxy)-2-fluorophenyl]methyl}-1-{[1-(cyanomethyl)cyclopropyl]methyl}-4-fluoro-1H-1,3-benzodiazole-6-carboxylic acid] it was below 50 nM; in that of `N#Cc1ccc(OCc2nccc(Oc3cc(F)c(Cc4nc5c(F)cc(C(=O)O)cc5n4C[C@@H]4CCO4)cc3F)n2)c(F)c1` [Compound 470, 2-{[4-({2-[(4-cyano-2-fluorophenoxy)methyl]pyrimidin-4-yl}oxy)-2,5-difluorophenyl]methyl}-4-fluoro-1-{[(2S)-oxetan-2-yl]methyl}-1H-1,3-bcnzodiazole-6-carboxylic acid], below 50 nM; in that of `N#Cc1ccc(OCc2ccc(F)c(C3CCN(Cc4nc5ccc(C(=O)O)cc5n4C[C@@H]4CCO4)C3)n2)c(F)c1` (stereo partly drawn) [Compound 520, 2-[(3-{6-[(4-cyano-2-fluorophenoxy)methyl]-3-fluoropyridin-2-yl}pyrrolidin-1-yl)methyl]-1-{[(2S)-oxetan-2-yl]methyl}-1H-1,3-benzodiazole-6-carboxylic acid], below 50 nM.
`N#Cc1ccc(OCc2ccc(F)c(C3CCN(Cc4nc5c(F)cc(C(=O)O)cc5n4C[C@@H]4CCO4)C3)n2)c(F)c1` (stereo partly drawn) [Compound 521, 2-[(3-{6-[(4-cyano-2-fluorophenoxy)methyl]-3-fluoropyridin-2-yl}pyrrolidin-1-yl)methyl]-4-fluoro-1-{[(2S)-oxetan-2-yl]methyl}-1H-1,3-benzodiazole-6-carboxylic acid]: the concentration giving a half-maximal response (EC50) is below 50 nM.

The record behind these values is patent publication US20220396569A1 (Carmot Therapeutics, Inc., priority 2021, published 2022).
